Data as given in ChEMBL document CHEMBL5678818, “Discovery of potent SOS1 inhibitors that block RAS activation via disruption of the RAS-SOS1 interaction” (Proc Natl Acad Sci U S A, 2019).

Columns and labels:
[1] = biological target: Mitogen-activated protein kinase kinase kinase 9 (Homo sapiens) (UniProt P80192); assay: Inhibition of MLK1 (unknown origin) assessed as residual activity at 100 nM by KINOMEscan analysis relative to control
GTPase KRas/RAF1 = GTPase KRas/RAF1 (Homo sapiens, UniProt P01116+P04049); assay: Inhibition of N-terminal His10-tagged wild-type recombinant human KRAS (1 to 169 residues) expressed in Escherichia coli/N-terminal GST-tagged recombinant human CRAF RBD (51 to 131 residues) expressed in Escherichia coli protein-protein interaction preincubated for 30 mins with KRAS followed by CRAF RBD addition measured after 60 mins in presence of anti-6His-XL665/GTP by HTRF analysis
[2] = biological target: T1, Membrane-associated tyrosine- and threonine-specific cdc2-inhibitory kinase (Homo sapiens) (UniProt Q99640); assay: Inhibition of PKMYT1 (unknown origin) assessed as residual activity at 100 nM by KINOMEscan analysis relative to control
T1 sequence (whole entry): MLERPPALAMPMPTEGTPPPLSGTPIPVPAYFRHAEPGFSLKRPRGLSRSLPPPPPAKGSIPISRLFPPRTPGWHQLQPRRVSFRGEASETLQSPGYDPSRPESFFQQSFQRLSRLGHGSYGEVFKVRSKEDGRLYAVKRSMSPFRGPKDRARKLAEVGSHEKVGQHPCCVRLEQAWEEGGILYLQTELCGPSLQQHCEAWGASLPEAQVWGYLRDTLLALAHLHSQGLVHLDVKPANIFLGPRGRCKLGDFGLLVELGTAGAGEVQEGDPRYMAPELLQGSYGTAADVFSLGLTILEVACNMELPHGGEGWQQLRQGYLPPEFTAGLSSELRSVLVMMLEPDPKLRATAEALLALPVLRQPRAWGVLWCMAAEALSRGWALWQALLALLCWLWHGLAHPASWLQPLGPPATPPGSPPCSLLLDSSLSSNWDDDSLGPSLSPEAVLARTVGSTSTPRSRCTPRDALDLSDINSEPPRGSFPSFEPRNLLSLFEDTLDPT

Homo sapiens = species: Homo sapiens; assay: Inhibition of JNK3 (unknown origin) assessed as residual activity at 100 nM by KINOMEscan analysis relative to control
[3] = biological target: ALK tyrosine kinase receptor (Homo sapiens) (UniProt Q9UM73); assay: Inhibition of ALK (unknown origin) assessed as residual activity at 100 nM by KINOMEscan analysis relative to control
[4] = biological target: T2, Serine/threonine-protein kinase LATS1 (Homo sapiens) (UniProt O95835); assay: Inhibition of LATS1 (unknown origin) assessed as residual activity at 100 nM by KINOMEscan analysis relative to control
T2 sequence (whole entry): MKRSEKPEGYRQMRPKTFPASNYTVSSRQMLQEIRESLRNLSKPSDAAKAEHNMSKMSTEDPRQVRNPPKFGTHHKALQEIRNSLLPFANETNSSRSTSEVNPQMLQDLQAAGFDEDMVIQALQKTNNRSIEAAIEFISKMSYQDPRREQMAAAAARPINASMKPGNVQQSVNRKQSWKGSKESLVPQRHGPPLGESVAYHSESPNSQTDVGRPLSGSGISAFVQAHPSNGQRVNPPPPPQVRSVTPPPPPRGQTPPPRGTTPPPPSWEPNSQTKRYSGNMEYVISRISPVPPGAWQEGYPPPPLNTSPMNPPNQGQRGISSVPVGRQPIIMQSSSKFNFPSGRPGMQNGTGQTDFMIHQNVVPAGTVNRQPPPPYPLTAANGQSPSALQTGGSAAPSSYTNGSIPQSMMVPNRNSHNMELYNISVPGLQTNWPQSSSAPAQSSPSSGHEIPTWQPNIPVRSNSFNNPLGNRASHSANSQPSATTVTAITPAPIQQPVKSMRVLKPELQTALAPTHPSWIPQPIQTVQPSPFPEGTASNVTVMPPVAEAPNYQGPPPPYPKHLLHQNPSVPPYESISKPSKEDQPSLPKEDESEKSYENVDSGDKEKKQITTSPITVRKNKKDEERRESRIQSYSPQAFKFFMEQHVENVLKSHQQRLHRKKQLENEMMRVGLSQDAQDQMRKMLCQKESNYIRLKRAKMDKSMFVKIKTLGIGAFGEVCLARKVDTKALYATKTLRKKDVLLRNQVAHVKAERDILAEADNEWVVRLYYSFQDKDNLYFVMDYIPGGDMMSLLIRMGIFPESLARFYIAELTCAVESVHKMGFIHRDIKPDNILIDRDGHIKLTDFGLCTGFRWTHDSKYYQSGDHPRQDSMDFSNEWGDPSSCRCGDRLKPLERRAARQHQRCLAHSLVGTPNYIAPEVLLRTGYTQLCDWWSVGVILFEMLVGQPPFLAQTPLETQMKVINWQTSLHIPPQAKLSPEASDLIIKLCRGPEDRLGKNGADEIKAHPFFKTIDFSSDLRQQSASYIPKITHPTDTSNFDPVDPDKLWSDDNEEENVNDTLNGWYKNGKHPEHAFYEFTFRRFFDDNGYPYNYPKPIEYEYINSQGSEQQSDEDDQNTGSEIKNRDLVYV

[5] = biological target: T3, NUAK family SNF1-like kinase 2 (Homo sapiens) (UniProt Q9H093); assay: Inhibition of SNARK (unknown origin) assessed as residual activity at 100 nM by KINOMEscan analysis relative to control
T3 sequence (whole entry): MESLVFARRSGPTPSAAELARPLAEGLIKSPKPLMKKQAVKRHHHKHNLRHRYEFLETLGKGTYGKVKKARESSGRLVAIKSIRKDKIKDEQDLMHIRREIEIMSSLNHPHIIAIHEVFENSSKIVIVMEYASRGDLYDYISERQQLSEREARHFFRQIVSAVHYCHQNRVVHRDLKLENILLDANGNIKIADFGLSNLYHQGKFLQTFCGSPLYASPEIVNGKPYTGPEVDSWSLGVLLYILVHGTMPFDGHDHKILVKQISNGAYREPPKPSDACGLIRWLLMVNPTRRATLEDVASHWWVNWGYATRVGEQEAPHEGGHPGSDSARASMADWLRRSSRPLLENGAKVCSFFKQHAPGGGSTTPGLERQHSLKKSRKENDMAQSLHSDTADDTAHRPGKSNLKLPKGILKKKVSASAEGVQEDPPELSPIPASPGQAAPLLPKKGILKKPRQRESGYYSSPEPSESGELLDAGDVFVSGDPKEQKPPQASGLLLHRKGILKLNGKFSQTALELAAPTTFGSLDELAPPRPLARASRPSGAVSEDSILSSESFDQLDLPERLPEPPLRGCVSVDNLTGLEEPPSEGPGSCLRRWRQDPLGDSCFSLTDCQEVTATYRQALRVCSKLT

[6] = tested on: Tyrosine-protein kinase ABL1 (Homo sapiens), P00519 [F317L]; assay: Inhibition of nonphosphorylated ABL1 F317L mutant (unknown origin) assessed as residual activity at 100 nM by KINOMEscan analysis relative to control
[7] = biological target: Mitogen-activated protein kinase kinase kinase 1 (Homo sapiens) (UniProt Q13233); assay: Inhibition of MAP3K1 (unknown origin) assessed as residual activity at 100 nM by KINOMEscan analysis relative to control

In the case of `COc1cc2ncnc(N[C@H](C)c3cccc4ccccc34)c2cc1OC`, the Activity [1] is reported as 100%, the IC50 (GTPase KRas/RAF1) is reported as greater than 20 µM and the Activity [2] is reported as 100%. For the same compound, the Activity (Homo sapiens) was 77%, the Activity [3] was 87% and the Activity [4] was 97%. The Activity [5] was 92%, the Activity [6] was 100% and the Activity [7] was 100%.
